pIC50: −log10 of the molar value. Where two headings read alike, the source gives them in different places.
What was measured:
[1] = system: bovine capillary endothelial (BCE) cells; assay: Endothelial cell proliferation assay (bFGF-stimulated); assay type: cell-based
Experimental: Male Sprague-Dawley rats weighing 200 g were used as an experimental animal. Arsenolite (solid As4O6) was dissolved in water until it becomes a 1 mM of stock solution, and kept at the room temperature. Bovine capillary endothelial (BCE) cells were provided by Dr. Tae-Hee Lee (Lee, T. H., Rhim, T., and Kim, S. S. (1998). Prothromb inkringle-2 domain has a growth inhibitory activity against basic fibroblast growth factor-stimulated capillary endothelial cells. J. Biol. Chem 273, 28805-28812). BCE cells were preserved in Dulbecco's modified Eagle's medium (DMEM) supplemented with 10% heat-inactivated bovine calf serum (BCS; Hyclone Laboratories, Logan, Utah) L-glutamine (2 mM), penicillin (110 units/ml), streptomycin (100 μg/ml) and 1.5 ng/ml recombinant human basic fibroblast growth factor (bFGF; R&D Systems, Minneapolis, Minn.). Then, the cells were incubated at 37° C. under 10% CO2 condition. The cells between 10-15 passages were employed in this experiment.
Endothelial proliferation assay was performed as described by Cao et al. (Cao, Y., A., An, S. S. A., Ji, R. W., Davodson, D., Cao, Y., and Llinas, M. (1997) Kringle 5 of plasminogen is a novel inhibitor for endothelial cell growth. J. Biol. Chem. 271, 22924-22928). […] After 72 hours of incubation, the cells were trypsinized and counted using a hemocytometer. […]

[2] = system: bovine capillary endothelial (BCE) cells; assay: Chemotaxis assay in modified Boyden chambers (bFGF as chemoattractant); assay type: cell-based
Experimental: Chemotaxis assays were performed using modified Boyden chambers, which is equipped with polycarbonate nucleopore membrane (Boyden Chamber, Corning, Coring, N.Y.) described in Journal (Veronique Rigot, Maxime Lehmann, Frederic andre, Noucha Daemi, Jacques Marvaldi and Jose Luis: Integrin ligation and PKC activation are required for migration of colon carcinoma cells. Journal of cell science 111, 3119-3129 (1998)). Pre-coated filters (6.5 mm in diameter, 8 μm pore-size, Matrigel 100 μg/cm^2) were re-hydrated with 250 μl of medium, and 1×10^5 cells in 200 μl medium with or without arsenolite (at concentrations of 10 nM, 20 nM, 50 nM, 100 nM and 200 nM) in triple respectively were seeded into the upper part of each chamber, whereas the lower compartment was filled with 200 μl of serum free DMEM supplemented with 0.1% BSA and with (positive control) or without (negative control) 10 ng/ml bFGF as a chemoattractant. After the cells were incubated at 37° C. for 72 hours, non-migrated cells on the upper surface of the filter were wiped with a cotton swab, and migrated cells on the lower surface of the filter were fixed and stained with 0.125% Cumassie Blue in a mixture of methanol: acetic acid: water at the ratio of 45:10:45 by volume. Chemotaxis was determined by counting cells in five microscopic fields per well, and the extent of migration is expressed as an average number of cells per each microscopic field.

BCE cells = assay: Tube formation assay in 3-D fibrin gel culture; assay type: cell-based, bovine; conditions: 100 nM, bFGF 10 ng/ml, 48 or 96 hours
Experimental: To investigate the effect of arsenolite on the maturation of angiogenesis, particularly, tubular structure formation of capillary endothelial cells, BCE cells were cultured using three dimensional cultures on the fibrin gel.
Fibrin gels were prepared by following a reported procedure (Bastaki M, Nelli E E, Dell'Era P, Rusnati M, Molinari-Tosatti M P, Parolini S, Auerbach R, Ruco L P, Possati L, Presta M, Basic fibrolast growth factor-induced angiogenic phenotype in mouse endothelium. A study of aortic and microvascular endothelial cell lines. Arterioscler Thromb Vasc Bio March 1997; 17(3): 454-64). Briefly, 2.5 mg/ml of fibrinogen (Calbiochem, San Diego, Calif.) was dissolved in DMEM and cultured BCE cells were added to a final concentration of 10^5 cells/ml, and clotting was then initiated by addition of thrombin (0.5 unit/ml). The mixture was immediately transferred into 24-well plates and allowed to form gel for 5 minutes at 37° C. Following get formation, 0.5 ml of medium with or without bFGF (10 ng/ml) and arsenolite (100 nM) per well were added. After 48 or 96 hours, tube formation was examined under inverted microscopy.

[3] = system: bFGF-induced rat corneal neovascularization; assay: Corneal micropocket angiogenesis assay; assay type: in vivo, Sprague Dawley rat; conditions: oral; for bFGF-induced corneal neovascularization: 50 mg/kg/day for 7 days
Experimental: To further investigate the antiangiogenic activity of arsenolite in vivo, the inhibitory effect of systematically administered arsenolite on bFGF-induced neovascularization was studied. The corneal micropocket assay was performed by slight modification of a reported procedure (Polverim P J, Bouck N P, Rastinejad F. Assay and purification of naturally occurring inhibitor of angiogenesis, Methods Enzymol. 1991; 198: 440-450). That is, rats were anesthetized with ketamine. A corneal pocket was made by inserting a cataract knife, with the pocket's base 1-1.5 mm from the limbus. Pellets were made by mixing 30 μl of saline containing 2 μg of recombinant bFGF (R&D Systems, Minneapolis, Minn. U.S.A.) with 300 μg of sucralfate (Sigma, St. Louis, Mo., U.S.A.); this suspension was added to 30 μl of 12% (wt/vol) poly (2-hydroxyethyl methacylate) (Sigma, St. Louis, Mo., U.S.A.) in ethanol. Aliquots of this mixture were then pined onto Teflon pegs and allowed to dry producing approximately 17 pellets so that each pellet contains approximately 100 ng of bFGF. A pellet was implanted into corneal micropockets of each eye of an anesthetized male Sprague Dawley rat, followed by a single topical application of erythromycin ointment on the surface of the cornea. The animals were fed daily from the day of implantation by gastric lavage with 50 mg/kg of arsenolite powder for the treatment group, and the same foods and water without arsenolite for the control group. The corneal neovascularization in both eyes of all animals were examined daily with a slit lamp and the angiogenic responses were evaluated on day 7. The area of conical neovascularization was determined by measuring with a reticule the vessel length (L) from the limbus and the number of clock hours (C) of limbus involved as previously reported (D'Amato R I, Loughnan M S, Flynn E, Foulkman J, Thalidomide is an inhibitor of angiogenesis. Proc Natl Acad Sci USA Apr. 26, 1994; 91(9):4082-5). A formula was used to determine the area of a circular band segment: C/12×3.1416[r^2−(rL)^2], where r=5 mm, the measured radius of rat cornea.

[4] = Tolerability of treated rats in the corneal micropocket study; assay type: in vivo, Sprague Dawley rat; conditions: oral, 50 mg/kg/day for 7 days
Experimental: To further investigate the antiangiogenic activity of arsenolite in vivo, the inhibitory effect of systematically administered arsenolite on bFGF-induced neovascularization was studied. The corneal micropocket assay was performed by slight modification of a reported procedure (Polverim P J, Bouck N P, Rastinejad F. Assay and purification of naturally occurring inhibitor of angiogenesis, Methods Enzymol. 1991; 198: 440-450). That is, rats were anesthetized with ketamine. A corneal pocket was made by inserting a cataract knife, with the pocket's base 1-1.5 mm from the limbus. […] The corneal neovascularization in both eyes of all animals were examined daily with a slit lamp and the angiogenic responses were evaluated on day 7. The area of conical neovascularization was determined by measuring with a reticule the vessel length (L) from the limbus and the number of clock hours (C) of limbus involved as previously reported (D'Amato R I, Loughnan M S, Flynn E, Foulkman J, Thalidomide is an inhibitor of angiogenesis. Proc Natl Acad Sci USA Apr. 26, 1994; 91(9):4082-5). A formula was used to determine the area of a circular band segment: C/12×3.1416[r^2−(rL)^2], where r=5 mm, the measured radius of rat cornea. […]

[5] = 28-day oral administration toxicity in rat; assay type: in vivo, Sprague Dawley rat
[6] = oral administration; cited from earlier work

Compound	pIC50 ([1]; 3 ng/ml bFGF, 72 hours incubation, cell count, read-out: inhibition of BCE cell proliferation, IC50)	cell morphological changes associated with apoptotic endothelial cells (detachment, rounding, fragmentation) ([1]; after a 3-day incubation, 10 to 200 nM)	pIC50 ([2]; 10 ng/ml bFGF, 72 hours, read-out: inhibition of bFGF-induced invasiveness (chemotaxis), IC50)	inhibition of bFGF-induced invasiveness (chemotaxis) ([2]; at 100 nM, 10 ng/ml bFGF, 72 hours)	cell morphological changes associated with apoptotic endothelial cells (detachment, rounding, fragmentation) ([2]; chemotaxis assay, 10 to 200 nM)	generation of tubes by BCE cells (BCE cells)	bFGF-induced corneal neovascularization [3]	bFGF-induced corneal neovascularization ([3]; listed as angiogenesis inhibitor of the present invention)	density of corneal vessels compared with control animals ([3]; 50 mg/kg/day, day 7)	inhibition of clock hours of corneal circumferential neovascularization ([3]; 50 mg/kg/day, day 7)	inhibition of vessel length of corneal neovascularization ([3]; 50 mg/kg/day, day 7)	suppression of area of neovascularization ([3]; 50 mg/kg/day, day 7, area calculated from length and clock hours)	weight loss or unusual behavior over the course of the treatment [4]	side effect ([5]; oral 1 mg/kg for 28 days)	side effect ([5]; oral 10 mg/kg for 28 days)	histological alterations in kidney ([5]; oral 100 mg/kg for 28 days)	side effect on gastrointestinal and liver ([5]; oral 100 mg/kg for 28 days)	side effect on gastrointestinal and liver [6]
O1[As]2O[As]3O[As]1O[As](O2)O3 [arsenolite, Tetraarsenic oxide]	7.00	No distinct cell morphological changes	7.32	83.4%	none of distinct cell morphological changes	reduced	significantly inhibited	noticeably suppressed	markedly reduced	more than 60%	more than 60%	approximately 90%	did not experience weight loss or unusual behavior	none of side effect was observed	none of side effect was observed	only minor histological alterations was observed in kidney	no side affect on gastrointestinal and liver	–
arsenic trioxide	–	–	–	–	–	–	–	–	–	–	–	–	–	–	–	–	–	caused serious side effect on gastrointestinal and liver

Source: patent publication US6703049B2, “Angiogenesis inhibitor” (priority 2000, dated 2004)
